The source of these data is patent US9969742B2, “Imidazotriazinone compounds” (Ironwood Pharmaceuticals, Inc., priority 2012, dated 2018).

For orientation: IC50 means the concentration that inhibits the measured activity by half.

What all share (type): biochemical
Assay [1] concerns the target T1, PDE9A2 (Homo sapiens, UniProt O76083).
T1 construct: purchased Reaction Biology Corporation, Malvern, Pa
Kind of assay: Phosphodiesterase enzyme screening assay, PDE9A2. The gist of the method: (§1)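 Recombinant enzymes were run in 100 mM HEPES pH 7.5, 5 mM MgCl2, 1 mM DTT, 0.003% Brij with 4.0 μM cGMP substrate, started with cGMP or cAMP, 1 h at RT, and stopped with EDTA. Fluorescent substrate and product were separated by microfluidic mobility shift.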

Assay [2] has as its target T2, PDE1B (Homo sapiens, UniProt Q01064).
T2 construct: purchased Reaction Biology Corporation, Malvern, Pa
Kind of assay: Phosphodiesterase enzyme screening assay, PDE1B. The method, boiled down:
as §1

For assay [3], the target named is T3, PDE1A (Homo sapiens, UniProt P54750).
T3 construct: purchased Reaction Biology Corporation, Malvern, Pa
The assay is described as follows: Phosphodiesterase enzyme screening assay, PDE1A. The gist of the method:
as §1

The mark [4] stands for this setting: Table 1, 10 concentrations, 4.0 μM cGMP substrate, 1 hour at R.T., read-out: Band (PDE9A2 IC50).
The mark [5] stands for this setting: Table 1, ratio of IC50 values, value greater than 1 indicates greater selectivity for PDE9A2.
Where [6] appears, read: 4.0 μM cGMP substrate, 1 hour at R.T., read-out: Band (PDE9A2 IC50).
Setting [7] is: ratio of IC50 values PDE1B / PDE9A2, value greater than 1 = greater selectivity for PDE9A2.
[8] abbreviates: ratio of IC50 values PDE1A / PDE9A2, value greater than 1 = greater selectivity for PDE9A2.
[9] abbreviates: IC50 band, 4.0 μM cGMP substrate, 1 hour at R.T.
[10] abbreviates: ratio of IC50 values PDE1B vs PDE9A2, value greater than 1 indicates greater selectivity for PDE9A2.
[11] abbreviates: ratio of IC50 values PDE1A vs PDE9A2, value greater than 1 indicates greater selectivity for PDE9A2.
Where [12] appears, read: ratio of IC50 values, PDE1B versus PDE9A2, value greater than 1 indicates greater selectivity for PDE9A2.
[13] abbreviates: ratio of IC50 values, PDE1A versus PDE9A2, value greater than 1 indicates greater selectivity for PDE9A2.
The mark [14] stands for this setting: ratio of IC50 values, value greater than 1 indicates greater selectivity for PDE9A2.

Structures are written as SMILES. Like-named read-outs stand apart in the source and are kept apart here.

T2 sequence (Q01064 whole entry): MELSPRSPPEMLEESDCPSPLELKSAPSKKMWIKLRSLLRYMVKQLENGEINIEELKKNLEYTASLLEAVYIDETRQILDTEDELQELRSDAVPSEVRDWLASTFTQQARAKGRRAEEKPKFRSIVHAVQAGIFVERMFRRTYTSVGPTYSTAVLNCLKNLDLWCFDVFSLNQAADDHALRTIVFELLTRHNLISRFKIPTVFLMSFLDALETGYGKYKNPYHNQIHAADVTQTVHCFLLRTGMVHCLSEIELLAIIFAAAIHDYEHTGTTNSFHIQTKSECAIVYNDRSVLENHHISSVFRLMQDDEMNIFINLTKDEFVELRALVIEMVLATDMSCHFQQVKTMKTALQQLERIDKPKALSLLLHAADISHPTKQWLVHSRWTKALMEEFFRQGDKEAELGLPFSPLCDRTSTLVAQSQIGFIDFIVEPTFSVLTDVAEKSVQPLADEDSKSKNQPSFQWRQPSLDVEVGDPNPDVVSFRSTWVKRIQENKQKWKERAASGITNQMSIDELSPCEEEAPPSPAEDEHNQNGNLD
T3 sequence (P54750 whole entry): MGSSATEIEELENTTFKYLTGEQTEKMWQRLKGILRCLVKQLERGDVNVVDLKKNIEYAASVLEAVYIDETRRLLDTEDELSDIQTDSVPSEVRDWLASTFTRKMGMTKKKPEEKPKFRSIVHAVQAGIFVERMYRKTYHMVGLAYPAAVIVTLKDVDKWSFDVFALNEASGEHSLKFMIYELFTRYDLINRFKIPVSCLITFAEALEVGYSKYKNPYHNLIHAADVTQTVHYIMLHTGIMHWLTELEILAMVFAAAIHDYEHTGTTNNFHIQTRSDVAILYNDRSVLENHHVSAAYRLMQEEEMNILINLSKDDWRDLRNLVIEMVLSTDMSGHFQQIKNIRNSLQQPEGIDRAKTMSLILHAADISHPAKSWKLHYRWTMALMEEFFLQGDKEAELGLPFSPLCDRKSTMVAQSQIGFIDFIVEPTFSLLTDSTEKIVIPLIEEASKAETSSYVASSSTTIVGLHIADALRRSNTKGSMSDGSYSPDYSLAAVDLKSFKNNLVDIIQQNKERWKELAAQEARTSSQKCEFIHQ
T1 sequence (O76083 1-533 isoform O76083-2): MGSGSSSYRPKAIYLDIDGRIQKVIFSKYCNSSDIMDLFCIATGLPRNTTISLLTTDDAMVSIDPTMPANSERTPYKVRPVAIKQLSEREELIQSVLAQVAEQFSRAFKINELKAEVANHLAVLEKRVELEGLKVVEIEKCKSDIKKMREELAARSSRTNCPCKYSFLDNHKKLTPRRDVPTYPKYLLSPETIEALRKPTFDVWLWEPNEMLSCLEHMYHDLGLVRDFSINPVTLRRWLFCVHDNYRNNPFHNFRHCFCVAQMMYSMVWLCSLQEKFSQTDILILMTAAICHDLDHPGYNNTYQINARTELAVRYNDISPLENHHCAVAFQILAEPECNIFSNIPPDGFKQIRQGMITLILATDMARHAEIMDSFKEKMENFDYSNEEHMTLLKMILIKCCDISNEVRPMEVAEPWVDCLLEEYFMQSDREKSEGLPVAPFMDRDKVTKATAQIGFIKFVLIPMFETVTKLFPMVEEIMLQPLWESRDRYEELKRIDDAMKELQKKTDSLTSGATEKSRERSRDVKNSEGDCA

Consider `CC1CN(Cc2ccc(Cl)c(F)c2)CC1c1nn2c(C3CCOCC3)ncc2c(=O)[nH]1` (single isomer, unassigned; (+)) [(+)-2-((3,4-trans)-1-(4-chloro-3-fluorobenzyl)-4-methylpyrrolidin-3-yl)-7-(tetrahydro-2H-pyran-4-yl)imidazo[5,1-f][1,2,4]triazin-4(3H)-one], for which the 50% inhibitory concentration (IC50) in assay [1] (setting [4]) was less than 1000 nM. The “PDE1B selectivity (versus PDE9A2)” value in assay [2] (setting [5]) stood at 6575. In addition, the “PDE1A selectivity (versus PDE9A2)” value in assay [3] (setting [5]) is 3575.

In the case of `Cc1cc(CN2CC(C)C(c3nn4c(C5CCOCC5)ncc4c(=O)[nH]3)C2)ccc1Cl` (single isomer, unassigned; (+)) [(+)-2-((3,4-trans)-1-(4-chloro-3-methylbenzyl)-4-methylpyrrolidin-3-yl)-7-(tetrahydro-2H-pyran-4-yl)imidazo[5,1-f][1,2,4]triazin-4(3H)-one], in assay [1] (setting [6]), the concentration for half-maximal inhibition (IC50) was less than 1000 nM. For the same compound, the “PDE1B selectivity (versus PDE9A2)” value in assay [2] (setting [7]) worked out at 818. Also, in assay [3] (setting [8]), the “PDE1A selectivity (versus PDE9A2)” value is 466.

For the compound `CC1CN(Cc2ccc(Cl)cc2)CC1c1nn2c(C3CCC(F)(F)CC3)ncc2c(=O)[nH]1` (single isomer, unassigned; (+)) [(+)-2-((3,4-trans)-1-(4-chlorobenzyl)-4-methylpyrrolidin-3-yl)-7-(4,4-difluorocyclohexyl)imidazo[5,1-f][1,2,4]triazin-4(3H)-one], the concentration for half-maximal inhibition (IC50) in assay [1] (setting [4]) is less than 1000 nM. Besides, in assay [2] (setting [5]), the “PDE1B selectivity (versus PDE9A2)” value was determined as 1210. For the same compound, the “PDE1A selectivity (versus PDE9A2)” value in assay [3] (setting [5]) was determined as 595.

Consider `Cc1cc(F)ccc1-c1ncc2c(=O)[nH]c(C3CN(Cc4ccc(Cl)cc4)CC3C)nn12` (single isomer, unassigned; (+)) [(+)-2-((3,4-trans)-1-(4-chlorobenzyl)-4-methylpyrrolidin-3-yl)-7-(4-fluoro-2-methylphenyl)imidazo[5,1-f][1,2,4]triazin-4(3H)-one], for which the IC50 in assay [1] (setting [9]) was less than 1000 nM. Also, the “PDE1B selectivity (versus PDE9A2)” value in assay [2] (setting [10]) stood at 1106. Further, the “PDE1A selectivity (versus PDE9A2)” value in assay [3] (setting [11]) is listed as 468.

Take `Cc1ccccc1-c1ncc2c(=O)[nH]c(C3CN(Cc4ccc(Cl)cc4)CC3C)nn12` (single isomer, unassigned; (+)) [(+)-2-((3,4-trans)-1-(4-chlorobenzyl)-4-methylpyrrolidin-3-yl)-7-(o-tolyl)imidazo[5,1-f][1,2,4]triazin-4(3H)-one]: in assay [1] (read-out: Band (PDE9A2 IC50)), the IC50 was less than 1000 nM. The “PDE1B selectivity (versus PDE9A2)” value in assay [2] (setting [12]) is 109. Further, the “PDE1A selectivity (versus PDE9A2)” value in assay [3] (setting [13]) was 55.

For `CC1CN(Cc2ccc(C3CC3)cc2)CC1c1nn2c(C3CCOCC3)ncc2c(=O)[nH]1` (single isomer, unassigned; (+)) [(+)-2-((3,4-trans)-1-(4-cyclopropylbenzyl)-4-methylpyrrolidin-3-yl)-7-(tetrahydro-2H-pyran-4-yl)imidazo[5,1-f][1,2,4]triazin-4(3H)-one], the 50% inhibitory concentration (IC50) in assay [1] (setting [4]) is less than 1000 nM. Further, the “PDE1B selectivity (versus PDE9A2)” value in assay [2] (setting [5]) was 605. Further, the “PDE1A selectivity (versus PDE9A2)” value in assay [3] (setting [5]) is recorded as 260.

Turning to `CC1CN(Cc2ccc(F)c(C(F)(F)F)c2)CC1c1nn2c(C3CCOCC3)ncc2c(=O)[nH]1` (single isomer, unassigned; (+)) [(+)-2-((3,4-trans)-1-(4-fluoro-3-(trifluoromethyl)benzyl)-4-methylpyrrolidin-3-yl)-7-(tetrahydro-2H-pyran-4-yl)imidazo[5,1-f][1,2,4]triazin-4(3H)-one], the half-maximal inhibitory concentration (IC50) in assay [1] (setting [4]) is less than 1000 nM. Besides, in assay [2] (setting [5]), the “PDE1B selectivity (versus PDE9A2)” value came to 1097. In addition, the “PDE1A selectivity (versus PDE9A2)” value in assay [3] (setting [5]) was determined as 1687.

In the case of `CC1CN(Cc2ccc(F)cc2)CC1c1nn2c(-c3ccccc3F)ncc2c(=O)[nH]1` (single isomer, unassigned; (+)) [(+)-2-((3,4-trans)-1-(4-fluorobenzyl)-4-methylpyrrolidin-3-yl)-7-(2-fluorophenyl)imidazo[5,1-f][1,2,4]triazin-4(3H)-one], the IC50 in assay [1] (setting [6]) is less than 1000 nM. For the same compound, the “PDE1B selectivity (versus PDE9A2)” value in assay [2] (ratio of IC50 values PDE1B / PDE9A2, value greater than 1 indicates greater selectivity for PDE9A2) turned out to be 165. The “PDE1A selectivity (versus PDE9A2)” value in assay [3] (ratio of IC50 values PDE1A / PDE9A2, value greater than 1 indicates greater selectivity for PDE9A2) worked out at 62.

For `CC1CN(Cc2ccc(F)cc2)CC1c1nn2c(-c3cccc(F)c3)ncc2c(=O)[nH]1` (single isomer, unassigned; (+)) [(+)-2-((3,4-trans)-1-(4-fluorobenzyl)-4-methylpyrrolidin-3-yl)-7-(3-fluorophenyl)imidazo[5,1-f][1,2,4]triazin-4(3H)-one], the IC50 in assay [1] (read-out: Band (PDE9A2 IC50)) was less than 1000 nM. The “PDE1B selectivity (versus PDE9A2)” value in assay [2] (setting [12]) is reported as 57. Besides, the “PDE1A selectivity (versus PDE9A2)” value in assay [3] (setting [13]) came out at 42.

Turning to `Cc1ccccc1-c1ncc2c(=O)[nH]c(C3CN(Cc4ccc(F)cc4)CC3C)nn12` (single isomer, unassigned; (+)) [(+)-2-((3,4-trans)-1-(4-fluorobenzyl)-4-methylpyrrolidin-3-yl)-7-(o-tolyl)imidazo[5,1-f][1,2,4]triazin-4(3H)-one], the half-inhibitory concentration (IC50) in assay [1] (read-out: Band (PDE9A2 IC50)) was less than 1000 nM. In addition, the “PDE1B selectivity (versus PDE9A2)” value in assay [2] (setting [12]) was determined as 744. In addition, in assay [3] (setting [13]), the “PDE1A selectivity (versus PDE9A2)” value was 963.

For the compound `CCC(CC)c1ncc2c(=O)[nH]c(C3CN(Cc4ccc(F)cc4)CC3C)nn12` (single isomer, unassigned; (+)) [(+)-2-((3,4-trans)-1-(4-fluorobenzyl)-4-methylpyrrolidin-3-yl)-7-(pentan-3-yl)imidazo[5,1-f][1,2,4]triazin-4(3H)-one], in assay [1] (read-out: Band (PDE9A2 IC50)), the IC50 was less than 1000 nM. Moreover, the “PDE1B selectivity (versus PDE9A2)” value in assay [2] (setting [12]) is on record as 27. The “PDE1A selectivity (versus PDE9A2)” value in assay [3] (setting [13]) is 70.

As for `CC1CN(Cc2ccc(F)cc2)CC1c1nn2c(C3CCOCC3)ncc2c(=O)[nH]1` (single isomer, unassigned; (+)) [(+)-2-((3,4-trans)-1-(4-fluorobenzyl)-4-methylpyrrolidin-3-yl)-7-(tetrahydro-2H-pyran-4-yl)imidazo[5,1-f][1,2,4]triazin-4(3H)-one], the half-maximal inhibitory concentration (IC50) in assay [1] (setting [4]) is less than 1000 nM. Moreover, the “PDE1B selectivity (versus PDE9A2)” value in assay [2] (setting [5]) is 714. For the same compound, the “PDE1A selectivity (versus PDE9A2)” value in assay [3] (setting [5]) is given as 664.

As for `CC1CN(Cc2ccc(F)cc2)CC1c1nn2c(-c3ccccc3)ncc2c(=O)[nH]1` (single isomer, unassigned; (+)) [(+)-2-((3,4-trans)-1-(4-fluorobenzyl)-4-methylpyrrolidin-3-yl)-7-phenylimidazo[5,1-f][1,2,4]triazin-4(3H)-one], the IC50 in assay [1] (read-out: Band (PDE9A2 IC50)) was less than 1000 nM. Besides, the “PDE1B selectivity (versus PDE9A2)” value in assay [2] (setting [12]) was 7. The “PDE1A selectivity (versus PDE9A2)” value in assay [3] (setting [13]) is reported as 3.

For the compound `CC1CN(Cc2cc(Cl)ccc2F)CC1c1nn2c(C3CCOCC3)ncc2c(=O)[nH]1` (single isomer, unassigned; (+)) [(+)-2-((3,4-trans)-1-(5-chloro-2-fluorobenzyl)-4-methylpyrrolidin-3-yl)-7-(tetrahydro-2H-pyran-4-yl)imidazo[5,1-f][1,2,4]triazin-4(3H)-one], the 50% inhibitory concentration (IC50) in assay [1] (setting [6]) was less than 1000 nM. In assay [2] (setting [7]), the “PDE1B selectivity (versus PDE9A2)” value is 16. Besides, in assay [3] (setting [8]), the “PDE1A selectivity (versus PDE9A2)” value was 15.

Consider `CC1CN(Cc2ncon2)CC1c1nn2c(C3CCOCC3)ncc2c(=O)[nH]1` (single isomer, unassigned; (+)) [(+)-2-((3,4-trans)-1-((1,2,4-oxadiazol-3-yl)methyl)-4-methylpyrrolidin-3-yl)-7-(tetrahydro-2H-pyran-4-yl)imidazo[5,1-f][1,2,4]triazin-4(3H)-one], for which, in assay [1] (read-out: Band (PDE9A2 IC50)), the concentration for half-maximal inhibition (IC50) was less than 1000 nM. In assay [2] (setting [14]), the “PDE1B selectivity (versus PDE9A2)” value is given as 63. Also, in assay [3] (setting [14]), the “PDE1A selectivity (versus PDE9A2)” value is listed as 35.

As for `CC1CN(Cc2ncno2)CC1c1nn2c(C3CCOCC3)ncc2c(=O)[nH]1` (single isomer, unassigned; (+)) [(+)-2-((3,4-trans)-1-((1,2,4-oxadiazol-5-yl)methyl)-4-methylpyrrolidin-3-yl)-7-(tetrahydro-2H-pyran-4-yl)imidazo[5,1-f][1,2,4]triazin-4(3H)-one], the 50% inhibitory concentration (IC50) in assay [1] (read-out: Band (PDE9A2 IC50)) is less than 1000 nM. The “PDE1B selectivity (versus PDE9A2)” value in assay [2] (setting [14]) is recorded as 1528. Moreover, the “PDE1A selectivity (versus PDE9A2)” value in assay [3] (setting [14]) was found to be 650.

As to `Cc1cc(CN2CC(C)C(c3nn4c(C5CCOCC5)ncc4c(=O)[nH]3)C2)n(C)n1` (single isomer, unassigned; (+)) [(+)-2-((3,4-trans)-1-((1,3-dimethyl-1H-pyrazol-5-yl)methyl)-4-methylpyrrolidin-3-yl)-7-(tetrahydro-2H-pyran-4-yl)imidazo[5,1-f][1,2,4]triazin-4(3H)-one], the half-maximal inhibitory concentration (IC50) in assay [1] (setting [4]) is less than 1000 nM. The “PDE1B selectivity (versus PDE9A2)” value in assay [2] (setting [5]) worked out at 670. The “PDE1A selectivity (versus PDE9A2)” value in assay [3] (setting [5]) is recorded as 487.

As to `CC1CN(Cc2nc3ccccc3[nH]2)CC1c1nn2c(C3CCC(F)(F)CC3)ncc2c(=O)[nH]1` (single isomer, unassigned; (+)) [(+)-2-((3,4-trans)-1-((1H-benzo[d]imidazol-2-yl)methyl)-4-methylpyrrolidin-3-yl)-7-(4,4-difluorocyclohexyl)imidazo[5,1-f][1,2,4]triazin-4(3H)-one], the 50% inhibitory concentration (IC50) in assay [1] (setting [9]) was less than 1000 nM. The “PDE1B selectivity (versus PDE9A2)” value in assay [2] (setting [10]) amounted to 250. In addition, the “PDE1A selectivity (versus PDE9A2)” value in assay [3] (setting [11]) was 90.
